Experiment [1] relates to Coxsackievirus B4. As to the kind of experiment: Antiviral activity against coxsackie B4 in Vero cell culture lines. Type of experiment: functional. To be noted: Enterovirus B.
For another experiment, the system named is Sindbis virus. The experiment is described as follows: Antiviral activity against sindbis virus in Vero cell culture lines. In kind it is functional.
For a further experiment, the system named is Human alphaherpesvirus 2. The experiment is described as follows: Antiviral activity against HSV-2(G) strain in primary rabbit kidney (PRK) / embryonic skin-muscle (E6SM) fibroblast culture lines. In kind it is functional. To be noted: Human alphaherpesvirus 2, Muscle tissue.
Experiment [2] has as its system Human immunodeficiency virus 1. As to the kind of experiment: Antiviral activity against (HIV-1) in MT-4 cells Value in parentheses is inhibitory concentration for cell growth (MT-4). Type of experiment: functional, MT4.
Another experiment relates to Poliovirus 1. As to the kind of experiment: Antiviral activity against polio virus type 1 in HeLa cell culture lines. To be noted: Enterovirus C. Type of experiment: functional.
The subject of experiment [3] is Vesicular stomatitis virus. The experiment is described as follows: Antiviral activity against vesicular stomatitis virus (VSV) in HeLa cell culture lines,. In kind it is functional.
The test system of the next experiment is Human alphaherpesvirus 1. As to the kind of experiment: Antiviral activity against HSV-1(KOS) strain in primary rabbit kidney (PRK) / embryonic skin-muscle (E6SM) fibroblast culture lines. Type of experiment: functional. The note with it: Human alphaherpesvirus 1, Muscle tissue.
Experiment [4] relates to Mammalian orthoreovirus 1. As to the kind of experiment: Antiviral activity against reovirus type 1 in Vero cell culture lines. In kind it is functional.
Experiment [5] concerns Vesicular stomatitis virus. As to the kind of experiment: Antiviral activity against vesicular stomatitis virus (VSV) in primary rabbit kidney (PRK) / embryonic skin-muscle (E6SM) fibroblast culture lines. Type of experiment: functional. The note with it: Muscle tissue.
The next experiment deals with Semliki Forest virus. As to the kind of experiment: Antiviral activity against semliki forest virus (SFV) in Vero cell culture lines. Type of experiment: functional.
A further experiment has as its system Human respirovirus 3. As to the kind of experiment: Antiviral activity against parainfluenza virus type 3 in Vero cell culture lines. Type of experiment: functional.
Experiment [6] has as its system Coxsackievirus B4. The experiment is described as follows: Antiviral activity against coxsackie B4 virus in HeLa cell culture lines. To be noted: Enterovirus B. Type of experiment: functional.
The next experiment deals with Vaccinia virus. As to the kind of experiment: Antiviral activity against vaccinia virus (VV) in primary rabbit kidney (PRK) / embryonic skin-muscle (E6SM) fibroblast culture lines. The note with it: Orthopoxvirus vaccinia, Muscle tissue. In kind it is functional.

In brackets after ≈: the same amount, converted by molar mass. Where only a bound is given, the exact number is not on record here.

Consider `Nc1ncnc2c([C@@H]3O[C@H](CO)C[C@H]3O)n[nH]c12`, for which the MIC was more than 200 µg/mL against Coxsackievirus B4 [1]; more than 400 µg/mL in the experiment on Sindbis virus; more than 400 µg/mL in the experiment with Human alphaherpesvirus 2; more than 100 µg/mL in experiment [2]; more than 400 µg/mL with Poliovirus 1; more than 400 µg/mL in experiment [3]. Moreover, the MIC in the experiment with Human alphaherpesvirus 1 was more than 400 µg/mL; in experiment [4], more than 200 µg/mL; in [5], more than 400 µg/mL; with Semliki Forest virus it was more than 400 µg/mL; in the experiment with Human respirovirus 3, 300 µg/mL (≈ 1190 µM); in the experiment on Coxsackievirus B4 [6], more than 400 µg/mL. Also, in the experiment on Vaccinia virus, the MIC is more than 400 µg/mL.

In the case of `CCCOC(=O)C(N)CCSC[C@H]1OC(n2ccc3c(N)ncnc32)[C@H](O)[C@@H]1O` (stereo partly specified), the MIC against Coxsackievirus B4 [1] was 70 µg/mL (≈ 165 µM); in the experiment on Sindbis virus, more than 70 µg/mL; against Human alphaherpesvirus 2, 2 µg/mL (≈ 4.7 µM); in experiment [2] it was more than 20 µg/mL; against Poliovirus 1, more than 100 µg/mL; in experiment [3], 20 µg/mL (≈ 47 µM). Also, the MIC is 10 µg/mL (≈ 23.5 µM) against Human alphaherpesvirus 1; more than 70 µg/mL in [4]; 2 µg/mL (≈ 4.7 µM) in experiment [5]; more than 150 µg/mL against Semliki Forest virus; more than 70 µg/mL with Human respirovirus 3; more than 100 µg/mL against Coxsackievirus B4 [6]. This compound registered an MIC against Vaccinia virus of 1 µg/mL (≈ 2.35 µM).

For `COC(=O)C(CCSC[C@@H]1C[C@@H](O)[C@H](n2ccc3c(N)ncnc32)O1)NC(=O)C(F)(F)F` (stereo partly specified), the MIC in the experiment with Coxsackievirus B4 [1] is more than 200 µg/mL; with Sindbis virus it was more than 400 µg/mL; against Human alphaherpesvirus 2, more than 200 µg/mL; in [2] it was more than 100 µg/mL; in the experiment on Poliovirus 1, more than 400 µg/mL; in experiment [3], 300 µg/mL (≈ 628 µM). Moreover, the MIC in the experiment with Human alphaherpesvirus 1 was more than 200 µg/mL; in experiment [4] it was 40 µg/mL (≈ 83.8 µM); in experiment [5] it was 20 µg/mL (≈ 41.9 µM); in the experiment on Semliki Forest virus, more than 400 µg/mL; in the experiment with Human respirovirus 3, more than 200 µg/mL; in the experiment with Coxsackievirus B4 [6], more than 200 µg/mL. In the experiment with Vaccinia virus, this compound returned an MIC of 70 µg/mL (≈ 147 µM).

Turning to `CC(=O)NC(CCSC[C@H]1OC(n2ccc3c(N)ncnc32)[C@H](O)[C@@H]1O)C(=O)O` (stereo partly specified), the MIC in the experiment on Coxsackievirus B4 [1] was more than 400 µg/mL; in the experiment with Sindbis virus it was more than 400 µg/mL; with Human alphaherpesvirus 2, more than 200 µg/mL; in experiment [2], more than 200 µg/mL; against Poliovirus 1, more than 400 µg/mL; in experiment [3] it was more than 400 µg/mL. The MIC against Human alphaherpesvirus 1 is more than 200 µg/mL; in [4], more than 700 µg/mL; in experiment [5], more than 200 µg/mL; with Semliki Forest virus, more than 400 µg/mL; against Human respirovirus 3, more than 400 µg/mL; against Coxsackievirus B4 [6] it was more than 400 µg/mL. In addition, the MIC against Vaccinia virus was found to be 7 µg/mL (≈ 16.5 µM).

In the case of `CC(C)(C)C(=O)OCn1nc([C@@H]2O[C@H](CO)[C@@H](O)[C@H]2O)c2ncnc(N)c21`, the MIC in the experiment on Coxsackievirus B4 [1] was more than 10 µg/mL; in the experiment on Sindbis virus, more than 10 µg/mL; against Human alphaherpesvirus 2, more than 40 µg/mL; in [2], more than 0.8 µg/mL; in the experiment on Poliovirus 1 it was more than 40 µg/mL; in experiment [3], 30 µg/mL (≈ 78.7 µM). For the same compound, the MIC is 30 µg/mL (≈ 78.7 µM) in the experiment with Human alphaherpesvirus 1; 3 µg/mL (≈ 7.87 µM) in [4]; 30 µg/mL (≈ 78.7 µM) in [5]; more than 10 µg/mL with Semliki Forest virus; 1 µg/mL (≈ 2.62 µM) in the experiment on Human respirovirus 3; more than 40 µg/mL against Coxsackievirus B4 [6]. Moreover, the MIC in the experiment with Vaccinia virus was more than 40 µg/mL.

Consider `CCCOC(=O)C(CCSC[C@H]1OC(n2ccc3c(N)ncnc32)[C@H](O)[C@@H]1O)NC(=O)C(F)(F)F` (stereo partly specified), for which the MIC in the experiment on Coxsackievirus B4 [1] is more than 150 µg/mL; in the experiment on Sindbis virus, 70 µg/mL (≈ 134 µM); against Human alphaherpesvirus 2, more than 10 µg/mL; in the experiment with Poliovirus 1 it was more than 100 µg/mL; in [3], more than 20 µg/mL; in the experiment on Human alphaherpesvirus 1 it was more than 10 µg/mL. Moreover, the MIC in [4] was more than 100 µg/mL; in experiment [5], more than 10 µg/mL; against Semliki Forest virus it was more than 200 µg/mL; against Human respirovirus 3 it was 70 µg/mL (≈ 134 µM); in the experiment on Coxsackievirus B4 [6], more than 100 µg/mL; in the experiment with Vaccinia virus, 0.7 µg/mL (≈ 1.34 µM).

Take `Nc1ncnc2c1ccn2[C@@H]1O[C@H](CO)[C@@H](O)[C@H]1O` [TUBERCIDIN]: the MIC is 0.07 µg/mL (≈ 0.263 µM) in the experiment with Coxsackievirus B4 [1]; more than 0.1 µg/mL with Sindbis virus; 0.2 µg/mL (≈ 0.751 µM) in the experiment with Human alphaherpesvirus 2; 0.2 µg/mL (≈ 0.751 µM) in the experiment on Poliovirus 1; 0.07 µg/mL (≈ 0.263 µM) in [3]; more than 0.2 µg/mL against Human alphaherpesvirus 1. In addition, the MIC is 0.02 µg/mL (≈ 0.0751 µM) in experiment [4]; 0.07 µg/mL (≈ 0.263 µM) in [5]; more than 0.1 µg/mL with Semliki Forest virus; 0.02 µg/mL (≈ 0.0751 µM) in the experiment on Human respirovirus 3; 0.2 µg/mL (≈ 0.751 µM) with Coxsackievirus B4 [6]; more than 0.1 µg/mL in the experiment with Vaccinia virus.

As to `CCOC(=O)C(N)CCSC[C@H]1OC(n2ccc3c(N)ncnc32)[C@H](O)[C@@H]1O` (stereo partly specified), the MIC was 20 µg/mL (≈ 48.6 µM) in the experiment with Coxsackievirus B4 [1]; more than 100 µg/mL in the experiment with Sindbis virus; 20 µg/mL (≈ 48.6 µM) against Human alphaherpesvirus 2; 70 µg/mL (≈ 170 µM) against Poliovirus 1; 20 µg/mL (≈ 48.6 µM) in [3]; 20 µg/mL (≈ 48.6 µM) with Human alphaherpesvirus 1. Also, the MIC in [4] was more than 70 µg/mL; in [5], 7 µg/mL (≈ 17 µM); against Semliki Forest virus, more than 100 µg/mL; in the experiment with Human respirovirus 3, more than 100 µg/mL; in the experiment with Coxsackievirus B4 [6], 70 µg/mL (≈ 170 µM); with Vaccinia virus it was 7 µg/mL (≈ 17 µM).

Regarding `Nc1nccc2c1ncn2[C@@H]1O[C@H](CO)[C@@H](O)[C@H]1O`, the MIC with Coxsackievirus B4 [1] was more than 200 µg/mL; against Sindbis virus, 70 µg/mL (≈ 263 µM); with Human alphaherpesvirus 2 it was 100 µg/mL (≈ 376 µM); in the experiment on Poliovirus 1 it was more than 400 µg/mL; in experiment [3], more than 2 µg/mL; with Human alphaherpesvirus 1, more than 400 µg/mL. The MIC in experiment [4] was 0.4 µg/mL (≈ 1.5 µM); in [5], 0.7 µg/mL (≈ 2.63 µM); in the experiment on Semliki Forest virus, more than 400 µg/mL; against Human respirovirus 3 it was 0.4 µg/mL (≈ 1.5 µM); against Coxsackievirus B4 [6], more than 400 µg/mL; in the experiment on Vaccinia virus, 1 µg/mL (≈ 3.76 µM).

Take `Nc1ncnc2c1CCN2[C@@H]1O[C@H](CSCCC(N)C(=O)O)C[C@H]1O` (stereo partly specified): the MIC is more than 200 µg/mL with Coxsackievirus B4 [1]; more than 200 µg/mL against Sindbis virus; more than 100 µg/mL in the experiment on Human alphaherpesvirus 2; more than 200 µg/mL against Poliovirus 1; 20 µg/mL (≈ 54.1 µM) in experiment [3]; more than 100 µg/mL with Human alphaherpesvirus 1. Further, the MIC is 70 µg/mL (≈ 189 µM) in experiment [4]; 20 µg/mL (≈ 54.1 µM) in [5]; more than 200 µg/mL with Semliki Forest virus; 100 µg/mL (≈ 271 µM) in the experiment on Human respirovirus 3; more than 200 µg/mL in the experiment on Coxsackievirus B4 [6]; 2 µg/mL (≈ 5.41 µM) against Vaccinia virus.

As to `CCOC(=O)C(CCSC[C@H]1OC(n2ccc3c(N)ncnc32)[C@H](O)[C@@H]1O)NC(=O)COC` (stereo partly specified), the MIC with Coxsackievirus B4 [1] was more than 150 µg/mL; in the experiment with Sindbis virus, 300 µg/mL (≈ 620 µM); with Human alphaherpesvirus 2, more than 100 µg/mL; against Poliovirus 1 it was more than 200 µg/mL; in [3] it was more than 70 µg/mL; in the experiment with Human alphaherpesvirus 1, more than 100 µg/mL. The MIC is 300 µg/mL (≈ 620 µM) in [4]; 70 µg/mL (≈ 145 µM) in [5]; more than 400 µg/mL in the experiment with Semliki Forest virus; more than 400 µg/mL in the experiment on Human respirovirus 3; 150 µg/mL (≈ 310 µM) in the experiment on Coxsackievirus B4 [6]; 2 µg/mL (≈ 4.14 µM) against Vaccinia virus.

On to `Nc1ncnc2c1CCN2[C@@H]1O[C@H](CO)C[C@H]1O`, for which the MIC is 7 µg/mL (≈ 27.7 µM) in the experiment on Coxsackievirus B4 [1]; 30 µg/mL (≈ 119 µM) against Sindbis virus; 7 µg/mL (≈ 27.7 µM) in the experiment with Human alphaherpesvirus 2; 7 µg/mL (≈ 27.7 µM) with Poliovirus 1; more than 10 µg/mL in [3]; more than 10 µg/mL in the experiment with Human alphaherpesvirus 1. Further, the MIC in experiment [4] was 4 µg/mL (≈ 15.9 µM); in experiment [5], more than 10 µg/mL; with Semliki Forest virus it was more than 40 µg/mL; in the experiment on Human respirovirus 3 it was 7 µg/mL (≈ 27.7 µM); against Coxsackievirus B4 [6], 7 µg/mL (≈ 27.7 µM); with Vaccinia virus it was 7 µg/mL (≈ 27.7 µM).

With `Nc1ncnc2c1ncn2C[C@H](O)CO` [(S)-DHPA], the MIC in the experiment with Coxsackievirus B4 [1] was more than 70 µg/mL; in the experiment on Sindbis virus it was more than 400 µg/mL; in the experiment with Human alphaherpesvirus 2, more than 400 µg/mL; in the experiment on Poliovirus 1, more than 400 µg/mL; in experiment [3] it was more than 70 µg/mL; in the experiment with Human alphaherpesvirus 1 it was more than 400 µg/mL. For the same compound, the MIC in experiment [4] is 7 µg/mL (≈ 33.5 µM); in experiment [5] it was 20 µg/mL (≈ 95.6 µM); against Semliki Forest virus it was more than 400 µg/mL; in the experiment on Human respirovirus 3, 10 µg/mL (≈ 47.8 µM); in the experiment on Coxsackievirus B4 [6], more than 400 µg/mL; in the experiment with Vaccinia virus it was 40 µg/mL (≈ 191 µM).
